These results are taken from patent publication US20240067632A1, “WEE1 Degrading Compounds and Uses Thereof” (Bristol-Myers Squibb Company, priority 2022, published 2024).

The target in test [1] is T1, WEE1 (Homo sapiens, UniProt P30291+Q96SW2).
T1 construct: C-terminal ePL-tagged (DiscoverX, Fremont, CA) full-length WEE1 expression construct; expressed in transfected cells; host or cells: LentiX-HEK293T (Invitrogen), lentiviral transduction; co-expressing GSPT1-GN (G576N, lacking the first 158 amino acids)
The test can be described thus: WEE1-ePL degradation assay (LentiX-WEE1-ePL-GSPT1-ND cells, InCELL Hunter luminescence, 4 h). The format is cell-based. To be noted: 293T-LentiX WEE1-ePL cells; for DC50: read-out: 293T-LentiX WEE1-ePL Degradation 4 hr (EC50). The essentials: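 Degradation EC50 was fitted by a four-parameter logistic model, with the upper limit taken from DMSO wells. Luminescence was read with InCELL Hunter reagent after 30 min at room temperature, following a 4 h, 37° C exposure of 2500 cells/well. Cells were LentiX-HEK293T carrying ePL-tagged full-length WEE1, dosed in 10 points (3-fold) from 1 or 10 uM.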

For test [2], the system named is MKN45 cells. The test can be described thus: MKN45 cell proliferation assay (Cell-Titer-Glo, 120 h). The settings on record: for EC50: Homo sapiens, MKN-45, 120 h, Cell-Titer-Glo, read-out: MKN45 Cell Prolif. 120 hr (EC50); for MKN45 Cell Prolif. 120 hr (Ymin-Obs): minimal percent of DMSO control observed in the concentrations tested. The format is cell-based. An outline of the steps:
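Cells seeded at 400/well onto pre-printed 10-point half-log dilutions (top 1 or 10 uM, 0.1% DMSO final), in triplicate, and grown 120 h at 37 C. Viability by Cell-Titer-Glo luminescence, blank-subtracted and normalised to DMSO; EC50 from four-parameter logistic fit, with observed minimal % of control recorded as Ymin-obs.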

The mark [3] stands for this setting: lower limit of the fit (0 = luciferase inhibitor, Ymax = DMSO control).
The mark [4] stands for this setting: lower limit of the fit (Ymin=0 luciferase inhibitor, Ymax DMSO control).

Read-outs that look alike come from different tables or passages of the source.

The term EC50 denotes the concentration that produces a half-maximal response.

Consider `O=C1CC[C@H](N2Cc3cc(O[C@H]4CCN(Cc5ccc6nc([C@H]7CCOC7)ncc6c5)C4)ccc3C2=O)C(=O)N1` [(3S)-3-(1-oxo-5-{[(3S)-1-({2-[(3R)-oxolan-3-yl]quinazolin-6-yl}methyl)pyrrolidin-3-yl]oxy}-2,3-dihydro-1H-isoindol-2-yl)piperidine-2,6-dione], for which the “293T-LentiX WEE1-ePL Degradation 4 hr (Ymin)” value in test [1] (setting [3]) worked out at 31. Further, the DC50 in test [1] was 17.8 nM. Moreover, in test [2] (growth inhibition), the EC50 stood at 14.6 nM. The “MKN45 Cell Prolif. 120 hr (Ymin-Obs)” value in test [2] was 8.266.

`O=C1CC[C@H](N2Cc3cc(O[C@H]4CCN(Cc5ccc6nc([C@H]7CCOC7)ccc6c5)C4)ccc3C2=O)C(=O)N1` [(3S)-3-(1-oxo-5-{[(3S)-1-({2-[(3R)-oxolan-3-yl]quinolin-6-yl}methyl)pyrrolidin-3-yl]oxy}-2,3-dihydro-1H-isoindol-2-yl)piperidine-2,6-dione]: the “293T-LentiX WEE1-ePL Degradation 4 hr (Ymin)” value in test [1] (setting [3]) turned out to be 35.5. For the same compound, the DC50 in test [1] is 2.59 nM. In addition, the EC50 in test [2] (growth inhibition) amounted to 2.68 nM. Also, the “MKN45 Cell Prolif. 120 hr (Ymin-Obs)” value in test [2] was 8.547.

As to `O=C1CC[C@H](N2Cc3cc(O[C@H]4CCN(Cc5ccc6nc([C@@H]7CCOC7)ccc6c5)C4)ccc3C2=O)C(=O)N1` [(3S)-3-(1-oxo-5-{[(3S)-1-({2-[(3S)-oxolan-3-yl]quinolin-6-yl}methyl)pyrrolidin-3-yl]oxy}-2,3-dihydro-1H-isoindol-2-yl)piperidine-2,6-dione], the “293T-LentiX WEE1-ePL Degradation 4 hr (Ymin)” value in test [1] (setting [3]) is reported as 30. Moreover, the DC50 in test [1] came out at 2.13 nM. Moreover, in test [2] (growth inhibition), the EC50 came to 4.09 nM. For the same compound, the “MKN45 Cell Prolif. 120 hr (Ymin-Obs)” value in test [2] is given as 9.489.

On to `O=C1CC[C@H](N2Cc3cc(O[C@H]4CCN(Cc5ccc6ncccc6c5)C4)ccc3C2=O)C(=O)N1` [(3S)-3-(1-oxo-5-{[(3S)-1-[(quinolin-6-yl)methyl]pyrrolidin-3-yl]oxy}-2,3-dihydro-1H-isoindol-2-yl)piperidine-2,6-dione], for which the “293T-LentiX WEE1-ePL Degradation 4 hr (Ymin)” value in test [1] (setting [3]) is recorded as 26.52. For the same compound, the DC50 in test [1] stood at 7.42 nM. Also, the EC50 in test [2] (growth inhibition) amounted to 31.4 nM. Moreover, the “MKN45 Cell Prolif. 120 hr (Ymin-Obs)” value in test [2] was determined as 12.265.

With `O=C1CC[C@H](N2Cc3cc(O[C@H]4CCN(Cc5ccc6nc(N7CCCC7=O)ccc6c5)C4)ccc3C2=O)C(=O)N1` [(3S)-3-(1-oxo-5-{[(3S)-1-{[2-(2-oxopyrrolidin-1-yl)quinolin-6-yl]methyl}pyrrolidin-3-yl]oxy}-2,3-dihydro-1H-isoindol-2-yl)piperidine-2,6-dione], in test [1] (setting [3]), the “293T-LentiX WEE1-ePL Degradation 4 hr (Ymin)” value came out at 40. Also, in test [1], the DC50 amounted to 1.51 nM. For the same compound, the EC50 in test [2] (growth inhibition) was 2.82 nM. Further, in test [2], the “MKN45 Cell Prolif. 120 hr (Ymin-Obs)” value is given as 8.56.

On to `O=C1CC[C@H](N2Cc3cc(O[C@H]4CCN(Cc5ccc6nc(N7CCCC7)ncc6c5)C4)ccc3C2=O)C(=O)N1` [(3S)-3-(1-oxo-5-{[(3S)-1-{[2-(pyrrolidin-1-yl)quinazolin-6-yl]methyl}pyrrolidin-3-yl]oxy}-2,3-dihydro-1H-isoindol-2-yl)piperidine-2,6-dione], for which the “293T-LentiX WEE1-ePL Degradation 4 hr (Ymin)” value in test [1] (setting [4]) came out at 43.18. Besides, the DC50 in test [1] was 6.04 nM. Also, in test [2], the EC50 came out at 26.9 nM and the “MKN45 Cell Prolif. 120 hr (Ymin-Obs)” value came out at 21.92.

Turning to `O=C1CC[C@H](N2Cc3cc(O[C@@H]4CN(Cc5ccc6nc([C@H]7CCOC7)ccc6c5)CC4(F)F)ccc3C2=O)C(=O)N1` [(3S)-3-(5-{[(3R)-4,4-difluoro-1-({2-[(3R)-oxolan-3-yl]quinolin-6-yl}methyl)pyrrolidin-3-yl]oxy}-1-oxo-2,3-dihydro-1H-isoindol-2-yl)piperidine-2,6-dione], in test [1] (setting [4]), the “293T-LentiX WEE1-ePL Degradation 4 hr (Ymin)” value is 28.37. The DC50 in test [1] was determined as 11.7 nM. Moreover, in test [2], the EC50 amounted to 7.63 nM and the “MKN45 Cell Prolif. 120 hr (Ymin-Obs)” value worked out at 8.319.

With `O=C1CC[C@H](N2Cc3cc(O[C@@H]4CN(Cc5ccc6nc([C@@H]7CCOC7)ccc6c5)CC4(F)F)ccc3C2=O)C(=O)N1` [(3S)-3-(5-{[(3R)-4,4-difluoro-1-({2-[(3S)-oxolan-3-yl]quinolin-6-yl}methyl)pyrrolidin-3-yl]oxy}-1-oxo-2,3-dihydro-1H-isoindol-2-yl)piperidine-2,6-dione], in test [1] (setting [4]), the “293T-LentiX WEE1-ePL Degradation 4 hr (Ymin)” value came to 30.03. In addition, in test [1], the DC50 worked out at 8.72 nM. For the same compound, in test [2], the EC50 came out at 6.36 nM and the “MKN45 Cell Prolif. 120 hr (Ymin-Obs)” value is on record as 8.017.

Consider `O=C1CC[C@H](N2Cc3cc(O[C@@H]4CN(Cc5ccc6nc(C7CCOCC7)ncc6c5)CC4(F)F)ccc3C2=O)C(=O)N1` [(3S)-3-(5-{[(3R)-4,4-difluoro-1-{[2-(oxan-4-yl)quinazolin-6-yl]methyl}pyrrolidin-3-yl]oxy}-1-oxo-2,3-dihydro-1H-isoindol-2-yl)piperidine-2,6-dione], for which, in test [1] (setting [4]), the “293T-LentiX WEE1-ePL Degradation 4 hr (Ymin)” value is reported as 22.61. Moreover, the DC50 in test [1] worked out at 105 nM. In addition, in test [2], the EC50 turned out to be 45.8 nM and the “MKN45 Cell Prolif. 120 hr (Ymin-Obs)” value is reported as 10.37.

Turning to `O=C1CC[C@H](N2Cc3cc(O[C@@H]4CN(Cc5cc6ccc(C7CCOCC7)cc6cn5)CC4(F)F)ccc3C2=O)C(=O)N1` [(3S)-3-(5-{[(3R)-4,4-difluoro-1-{[7-(oxan-4-yl)isoquinolin-3-yl]methyl}pyrrolidin-3-yl]oxy}-1-oxo-2,3-dihydro-1H-isoindol-2-yl)piperidine-2,6-dione], the “293T-LentiX WEE1-ePL Degradation 4 hr (Ymin)” value in test [1] (setting [4]) was 26.77. Further, the DC50 in test [1] was 2.76 nM. For the same compound, in test [2], the EC50 came out at 2.17 nM and the “MKN45 Cell Prolif. 120 hr (Ymin-Obs)” value was 9.546.

On to `CC1(C)C[C@H](c2ncc3cc(CN4CC[C@H](Oc5ccc6c(c5)CN([C@H]5CCC(=O)NC5=O)C6=O)C4)ccc3n2)CCO1` [(3S)-3-(5-{[(3S)-1-({2-[(4R)-2,2-dimethyloxan-4-yl]quinazolin-6-yl}methyl)pyrrolidin-3-yl]oxy}-1-oxo-2,3-dihydro-1H-isoindol-2-yl)piperidine-2,6-dione], for which the “293T-LentiX WEE1-ePL Degradation 4 hr (Ymin)” value in test [1] (setting [4]) was determined as 29.31. The DC50 in test [1] is 32.3 nM. For the same compound, in test [2], the EC50 worked out at 15.5 nM and the “MKN45 Cell Prolif. 120 hr (Ymin-Obs)” value was 11.79.

In the case of `CC1(C)C[C@H](c2ccc3cc(CN4CC[C@H](Oc5ccc6c(c5)CN([C@H]5CCC(=O)NC5=O)C6=O)C4)ccc3n2)CCO1` [(3S)-3-(5-{[(3S)-1-({2-[(4R)-2,2-dimethyloxan-4-yl]quinolin-6-yl}methyl)pyrrolidin-3-yl]oxy}-1-oxo-2,3-dihydro-1H-isoindol-2-yl)piperidine-2,6-dione], the “293T-LentiX WEE1-ePL Degradation 4 hr (Ymin)” value in test [1] (setting [4]) was 26.67. Further, the DC50 in test [1] was determined as 1.85 nM. In test [2], the EC50 was determined as 1.83 nM and the “MKN45 Cell Prolif. 120 hr (Ymin-Obs)” value stood at 11.19.

`CC1(C)C[C@@H](c2ccc3cc(CN4CC[C@H](Oc5ccc6c(c5)CN([C@H]5CCC(=O)NC5=O)C6=O)C4)cc(F)c3n2)CCO1` [(3S)-3-(5-{[(3S)-1-({2-[(4S)-2,2-dimethyloxan-4-yl]-8-fluoroquinolin-6-yl}methyl)pyrrolidin-3-yl]oxy}-1-oxo-2,3-dihydro-1H-isoindol-2-yl)piperidine-2,6-dione]: the “293T-LentiX WEE1-ePL Degradation 4 hr (Ymin)” value in test [1] (setting [4]) was 28.17. Further, the DC50 in test [1] worked out at 3.8 nM. Also, in test [2], the EC50 stood at 1.64 nM and the “MKN45 Cell Prolif. 120 hr (Ymin-Obs)” value came to 9.621.

Consider `CC1(C)C[C@@H](c2ncc3cc(CN4CC[C@H](Oc5ccc6c(c5)CN([C@H]5CCC(=O)NC5=O)C6=O)C4)ccc3n2)CCO1` [(3S)-3-(5-{[(3S)-1-({2-[(4S)-2,2-dimethyloxan-4-yl]quinazolin-6-yl}methyl)pyrrolidin-3-yl]oxy}-1-oxo-2,3-dihydro-1H-isoindol-2-yl)piperidine-2,6-dione], for which, in test [1] (setting [4]), the “293T-LentiX WEE1-ePL Degradation 4 hr (Ymin)” value amounted to 26.33. Further, the DC50 in test [1] was 24.9 nM. Further, in test [2], the EC50 was 7.77 nM and the “MKN45 Cell Prolif. 120 hr (Ymin-Obs)” value came to 8.718.

As for `CC1(C)C[C@@H](c2ccc3cc(CN4CC[C@H](Oc5ccc6c(c5)CN([C@H]5CCC(=O)NC5=O)C6=O)C4)ccc3n2)CCO1` [(3S)-3-(5-{[(3S)-1-({2-[(4S)-2,2-dimethyloxan-4-yl]quinolin-6-yl}methyl)pyrrolidin-3-yl]oxy}-1-oxo-2,3-dihydro-1H-isoindol-2-yl)piperidine-2,6-dione], the “293T-LentiX WEE1-ePL Degradation 4 hr (Ymin)” value in test [1] (setting [4]) amounted to 24.69. Further, the DC50 in test [1] came out at 1.77 nM. Besides, in test [2], the EC50 was found to be 1.34 nM and the “MKN45 Cell Prolif. 120 hr (Ymin-Obs)” value is 9.025.

Consider `CC1(C)C[C@H](c2ccc3cc(CN4CC[C@H](Oc5ccc6c(c5)CN([C@H]5CCC(=O)NC5=O)C6=O)C4)ncc3c2)CCO1` [(3S)-3-(5-{[(3S)-1-({7-[(4R)-2,2-dimethyloxan-4-yl]isoquinolin-3-yl}methyl)pyrrolidin-3-yl]oxy}-1-oxo-2,3-dihydro-1H-isoindol-2-yl)piperidine-2,6-dione], for which the “293T-LentiX WEE1-ePL Degradation 4 hr (Ymin)” value in test [1] (setting [4]) is given as 24.44. Besides, the DC50 in test [1] was 1.09 nM. Moreover, in test [2], the EC50 was found to be 0.593 nM and the “MKN45 Cell Prolif. 120 hr (Ymin-Obs)” value is listed as 9.482.

`CC1(C)C[C@@H](c2ccc3cc(CN4CC[C@H](Oc5ccc6c(c5)CN([C@H]5CCC(=O)NC5=O)C6=O)C4)ncc3c2)CCO1` [(3S)-3-(5-{[(3S)-1-({7-[(4S)-2,2-dimethyloxan-4-yl]isoquinolin-3-yl}methyl)pyrrolidin-3-yl]oxy}-1-oxo-2,3-dihydro-1H-isoindol-2-yl)piperidine-2,6-dione]: the “293T-LentiX WEE1-ePL Degradation 4 hr (Ymin)” value in test [1] (setting [4]) was found to be 26.79. Also, in test [1], the DC50 came out at 1.19 nM. Also, in test [2], the EC50 came out at 1.11 nM and the “MKN45 Cell Prolif. 120 hr (Ymin-Obs)” value amounted to 9.866.
